# Laboratory results from patent US20120165319A1, “INHIBITORS OF INTERLEUKIN-1 BETA CONVERTING ENZYME” (VERTEX PHARMACEUTICALS INCORPORATED, priority 1995, published 2012).
# pIC50, pKi: −log10 of the molar value.
# Columns and labels:
# [1] = test system: IL-1β, human peripheral blood mononuclear cells (PBMC); assay: PBMC cell assay: IL-1β assay with human PBMC or enriched adherent mononuclear cells, LPS-stimulated; assay type: cell-based
# In short: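 Mature IL-1β is measured by ELISA in supernatants after 16–18 hr at 37 °C, 5% CO2, with LPS (5 ng/ml final) and test compound (0.1% DMSO final). Cells are human PBMC (6×10^6 cells/ml) or plate-adherent mononuclear cells (2.5−3.0×10^5 per well), and the 5–6 compound concentrations span the ICE Ki.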
# [2] = In vivo rat clearance assay; details: for clearance: plasma, iv
# In short: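 Rats cannulated a day beforehand received 10–20 mg/kg by intravenous jugular dosing in propylene glycol/saline with 100 mM sodium bicarbonate. Carotid blood was sampled from 0 to 90 min, and plasma was extracted with acetonitrile/0.1% TFA for HPLC quantification. Clearance from non-linear regression pharmacokinetic analysis.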
# ICE = target: T1, ICE (Homo sapiens, UniProt P29466); assay: Enzyme assay with UV-visible substrate (visible ICE assay, Succinyl-Tyr-Val-Ala-Asp-pNitroanilide); assay type: biochemical
# T1 sequence (P29466 120-297 limits assumed): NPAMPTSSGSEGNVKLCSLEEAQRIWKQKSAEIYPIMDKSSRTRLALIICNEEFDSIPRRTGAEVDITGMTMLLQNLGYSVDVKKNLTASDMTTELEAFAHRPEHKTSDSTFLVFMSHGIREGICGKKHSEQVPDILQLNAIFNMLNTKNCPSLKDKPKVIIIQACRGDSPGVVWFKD
# T1 sequence (P29466 317-404 limits assumed): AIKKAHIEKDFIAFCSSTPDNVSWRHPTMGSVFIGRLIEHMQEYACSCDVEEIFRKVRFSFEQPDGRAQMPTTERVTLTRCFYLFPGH
# In short: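 Colorimetric caspase-1 activity: 15 min enzyme-inhibitor preincubation (RT), then Suc-Tyr-Val-Ala-Asp-pNA; 405-603 nm kinetics, 20 min, 37° C. Ki from rate fitting.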
# [3] = Homo sapiens, PBMC, * = values obtained upon reassay
# [4] = * = values obtained upon reassay
SMILES,"pIC50 ([1]; Homo sapiens, PBMC, Table 17)",clearance ([2]; Table 17) [mL/min/kg],pKi (ICE; Table 17),pIC50 ([1]; Table 17),"Clearance Rat, i.v. ([2]; Table 17) [mL/min/kg]","pIC50 [1, 3]",clearance ([2]; 10-20 mg/kg) [mL/min/kg],pKi (ICE; Table 5),"pIC50 [1, 4]"
"CC(=O)Nc1ccc(C(=O)N[C@H]2CCC(=O)N3CCC[C@@H](C(=O)N[C@H](C=O)CC(=O)O)N3C2=O)cc1Cl [Compound 214l, [3S(1S,9S)]3-(9-(3-Chloro-4-acetamidobenzoyl)amino-6,10-dioxo-1,2,3,4,7,8,9,10-octahydro-6H-pyridazino[1,2-a][1,2]diazepine-1-carboxamido)-4-oxobutanoic acid]",5.72,12,8.22,,,,,,
COc1c(Cl)cc(C(=O)N[C@H]2CCC(=O)N3CCC[C@@H](C(=O)N[C@H](C=O)CC(=O)O)N3C2=O)cc1Cl [Compound 214m],6.28,33.4,8.82,,,,,,
Cc1cc(C(=O)N[C@H]2CCC(=O)N3CCC[C@@H](C(=O)N[C@H](C=O)CC(=O)O)N3C2=O)cc(C)c1O [Compound 214w],,,9.22,6.21,15,,,,
"N#C[C@H](CC(=O)O)NC(=O)[C@@H]1CCCN2C(=O)CC[C@H](NC(=O)c3ccccc3)C(=O)N12 [Compound 232e, [3S(1S,9S)]9-(Benzoylamino)-3-[6,10-dioxo-1,2,3,4,7,8,9,10-octahydro-6H-pyridazino-[1,2-a][1,2]diazepine-1-carboxamido]-3-cyanopropanoic acid]",,,,,,5.35,26,5.96,
"O=C[C@H](CC(=O)O)NC(=O)[C@@H]1CCCN2C(=O)CCN(NC(=O)c3ccccc3)C(=O)N12 [Compound 265, [3S(4S)]3-(7-Benzamido-6,10-dioxo-1,2,3,4,7,8,9,10-octahydro-6H-pyridazino[1,2-a][1,2,4]triazepine-4-carboxamido)-4-oxobutanoic acid]",,,,,,5.37,20,7.33,
Cc1ccccc1C(=O)N[C@H]1CCC(=O)N2CCC[C@@H](C(=O)N[C@H](C=O)CC(=O)O)N2C1=O [Compound 404],,,,,,5.78,24,8.54,5.74
"O=C[C@H](CC(=O)O)NC(=O)[C@@H]1CCCN2C(=O)CC[C@H](NC(=O)c3cccc4ccccc34)C(=O)N12 [Compound 408, [3S(1S,9S)]3-[6,10-Dioxo-9-(naphth-1-oylamino)-1,2,3,4,7,8,9,10-octahydro-6H-pyridazino[1,2-a][1,2]diazepine-1-carboxamido]-4-oxobutanoic acid]",,,,,,5.96,23,9.30,
O=C[C@H](CC(=O)O)NC(=O)[C@@H]1CCCN2C(=O)CC[C@H](NC(=O)c3ccsc3)C(=O)N12 [Compound 410],,,,,,5.70,20,7.77,
"O=C[C@H](CC(=O)O)NC(=O)[C@@H]1CCCN2C(=O)CC[C@H](NC(=O)c3nccc4ccccc34)C(=O)N12 [Compound 412, [3S(1S,9S)]3-[6,10-Dioxo-9-(isoquinolin-1-oylamino)-1,2,3,4,7,8,9,10-octahydro-6H-pyridazino[1,2-a][1,2]diazepine-1-carboxamido]-4-oxobutanoic acid]",,,,,,6.24,25,8.89,6.18
"O=C[C@H](CC(=O)O)NC(=O)[C@@H]1CCCN2C(=O)CC[C@H](NC(=O)c3ccc4c(c3)OCO4)C(=O)N12 [Compound 415, [3S(1S,9S)]3-[6,10-Dioxo-9-(3,4-methylenedioxybenzoylamino)-1,2,3,4,7,8,9,10-octahydro-6H-pyridazino[1,2-a][1,2]diazepine-1-carboxamido]-4-oxobutanoic acid]",,,,,,6.00,18,8.60,6.00
O=C[C@H](CC(=O)O)NC(=O)[C@@H]1CCCN2C(=O)CC[C@H](NC(=O)c3ccc(Cl)cc3)C(=O)N12 [Compound 416],,,,,,5.92,47,7.92,
"COc1cc(C(=O)N[C@H]2CCC(=O)N3CCC[C@@H](C(=O)N[C@H](C=O)CC(=O)O)N3C2=O)cc(OC)c1OC [Compound 417, [3S(1S,9S)]3-[6,10-Dioxo-1,2,3,4,7,8,9,10-octahydro-9-(3,4,5-trimethoxybenzoylamino)-6H-pyridazino[1,2-a][1,2]diazepine-1-carboxamido]-4-oxobutanoic acid]",,,,,,5.70,22,8.10,
Cc1nc(C)c(C(=O)N[C@H]2CCC(=O)N3CCC[C@@H](C(=O)N[C@H](C=O)CC(=O)O)N3C2=O)s1 [Compound 423],,,,,,5.68,45,8.00,5.74
O=C[C@H](CC(=O)O)NC(=O)[C@@H]1CCCN2C(=O)CC[C@H](NC(=O)c3ccc4nc[nH]c4c3)C(=O)N12 [Compound 434],,,,,,5.80,20,8.31,5.92
O=C[C@H](CC(=O)O)NC(=O)[C@@H]1CCCN2C(=O)CC[C@H](NC(=O)c3cc4ccsc4s3)C(=O)N12 [Compound 442],,,,,,6.05,54,8.49,
"CC(=O)Nc1cccc(C(=O)N[C@H]2CCC(=O)N3CCC[C@@H](C(=O)N[C@H](C=O)CC(=O)O)N3C2=O)c1 [Compound 450, [3S(1S,9S)]3-{9-[(3-Acetamido)benzamido]-6,10-dioxo-1,2,3,4,7,8,9,10-octahydro-6H-pyridazino[1,2-a][1,2]diazepine-1-carboxamido}-4-oxobutanoic acid]",,,,,,6.10,12,8.30,
O=C[C@H](CC(=O)O)NC(=O)[C@@H]1CCCN2C(=O)CC[C@H](NC(=O)c3cccc(Cl)c3)C(=O)N12 [Compound 455],,,,,,6.40,54,8.92,
CN(C)c1cccc(C(=O)N[C@H]2CCC(=O)N3CCC[C@@H](C(=O)N[C@H](C=O)CC(=O)O)N3C2=O)c1 [Compound 470],,,,,,6.30,63,8.30,
CN(C)c1ccc(C(=O)N[C@H]2CCC(=O)N3CCC[C@@H](C(=O)N[C@H](C=O)CC(=O)O)N3C2=O)cc1 [Compound 471],,,,,,6.12,17,9.00,
"O=C[C@H](CC(=O)O)NC(=O)[C@@H]1CCCN2C(=O)CC[C@H](NC(=O)c3cc4ccccc4[nH]3)C(=O)N12 [Compound 475, [3S(1S,9S)]3-[6,10-Dioxo-9-(indol-2-oylamino)-1,2,3,4,7,8,9,10-octahydro-6H-pyridazino[1,2-a][1,2]diazepine-1-carboxamido]-4-oxobutanoic acid]",,,,,,6.16,21,8.26,6.19
CC(C)C(=O)Nc1ccc(C(=O)N[C@H]2CCC(=O)N3CCC[C@@H](C(=O)N[C@H](C=O)CC(=O)O)N3C2=O)cc1 [Compound 484],,,,,,5.81,15,8.70,5.85
"O=C[C@H](CC(=O)O)NC(=O)[C@@H]1CCCN2C(=O)CC[C@H](NC(=O)c3ccc(NC(=O)Cc4ccccc4)cc3)C(=O)N12 [Compound 486, [3S(1S,9S)]3-{6,10-Dioxo-1,2,3,4,7,8,9,10-octahydro-9-[4-(phenylacetamido)benzamido]-6H-pyridazino[1,2-a][1,2]diazepine-1-carboxamido}-4-oxobutanoic acid]",,,,,,6.32,37,8.64,6.24
"CC(C)CC(=O)Nc1ccc(C(=O)N[C@H]2CCC(=O)N3CCC[C@@H](C(=O)N[C@H](C=O)CC(=O)O)N3C2=O)cc1 [Compound 487, [3S(1S,9S)]3-{6,10-Dioxo-9-[4-(3-methylbutan-1-oylamino)benzamido]-1,2,3,4,7,8,9,10-octahydro-6H-pyridazino[1,2-a][1,2]diazepine-1-carboxamido}-4-oxobutanoic acid]",,,,,,6.19,20,8.62,6.02
"COC(=O)N[C@H]1CCC(=O)N2CCC[C@@H](C(=O)N[C@@H](CC(=O)O)C(=O)CSc3ncccn3)N2C1=O [Compound 511c, [3S(1S,9S)]3-[6,10-Dioxo-9-(methoxycarbonyl)-amino-1,2,3,4,7,8,9,10-octahydro-6H-pyridazino[1,2-a][1,2]diazepine-1-carboxamido]-5-(2-mercaptopyrimidine)-4-oxopentanoic acid]",< 4.70,40,6.14,,,,,,
"COCC(=O)N1C[C@H](NC(=O)c2ccccc2)C(=O)N(CC(=O)N[C@H](C=O)CC(=O)O)c2ccccc21 [Compound 605e, (3S)-3-[(3S)-2-Oxo-3-benzoylamino-5-methoxyacetyl-2,3,4,5-tetrahydro-1H-1,5-benzodiazepin-1-acetylamino]-4-oxo-butyric acid]",,,,,,5.65,24,7.54,
